According to patent US20180111893A1, “POLYCATIONIC AMPHIPHILES AND POLYMERS THEREOF AS ANTIMICROBIAL AGENTS AND METHODS USING SAME” (Temple University-Of The Commonwealth System of Higher …, priority 2015, published 2018):
Like-named read-outs stand apart in the source and are kept apart here.

How the values were obtained:
[1] = test system: MRSA biofilms (S. aureus USA300-0114); assay: Minimum biofilm eradication concentration (MBEC), regrowth assay; type: cell-based, Staphylococcus aureus; design: MBEC MRSA: unit not given here; settings: for MBEC v MRSA: Table 2, pre-formed MRSA biofilms; for MBEC MRSA: Table 5, regrowth OD under 0.1 (italics: OD < 0.5)
Description: (§1) A regrowth assay was used to establish the MBEC of a compound to evaluate the antibiofilm activity. See also H. Ceri, M. Olson, D. Morck, D. Storey, R. Read, A. Buret, B. Olson, Methods Enzymol. 2001, 337, 377, which is incorporated by reference herein in its entirety.
(§2) To each well of a flat-bottomed 96-well plate (Corning 3370), 8 μL of overnight bacterial culture was brought to a volume of 200 μL with fresh media (BHI for MSSA and MRSA). Plates were incubated statically for 24 hours at 37° C. to establish biofilms. After 24 hours, the wells were carefully emptied by inverting the plate and gently shaking. A pre-mixed solution of media and compound stock solution was added to each well and plates were incubated at 37° C. 16 hours after pre-established biofilms were treated with compound, the media from each well was removed, biofilms were washed three times with 200 μL PBS to remove planktonic cells, and biofilms were incubated overnight at 37° C. in 200 μL of fresh media to allow any viable cells to continue growing. The wells were then vigorously pipetted to resuspend the biofilm cells and the OD at 595 nm was measured using a plate reader (POLARstar Omega, BMG Labtech). Biofilms reaching a final OD of less than 0.1 were considered eradicated and the lowest concentration of antibiotic corresponded to the MBEC. Four replicates were completed for each concentration of compound as well as positive and negative controls.

red blood cells = type: cell-based, sheep
Description: To date, synthesized compounds have been evaluated against planktonic bacteria (E. coli, S. aureus, P. aeruginosa, E. facaelis) and bacterial biofilms (E. facaelis, S. aureus, MRSA); new compounds are similarly assessed. All compounds are also evaluated via a hemolysis assay to assess their ability to lyse red blood cells (RBC) (Nagamune et al., 2000, Toxicology in Vitro 14:139-147). The assay is conducted following a known protocol to determine the concentration of compound that causes 20% of RBCs to be lysed. […] All compounds are benchmarked against three commercial antiseptics—benzalkonium chloride, DDAC, and CHX (FIG. 1).
Hemolysis assays were performed according to a known method (Peng et al., 2011, Chem. Comm. 47:4896-4898). Defibrinated sheep blood was purchased from Hemostat Labs (DSB030). Compounds representative of each class were serially diluted in sterile PBS from stock solutions and incubated with resuspended blood cells. The OD of the final suspensions were measured directly using plate reader. TritonX (1% by volume) served as a positive control (100% lysis marker) and sterile PBS served as a negative control (0% lysis marker).

[2] = test system: Staphylococcus aureus (MSSA) biofilms; assay: Minimum biofilm eradication concentration (MBEC), regrowth assay; type: cell-based; design: MBEC MSSA: unit not given here; settings: for MBEC MSSA: Table 5, regrowth OD under 0.1 (italics: OD < 0.5); for MBEC v SA: Table 1
Description: as §1, §2

[3] = test system: Staphylococcus aureus (SA; MSSA SH1000); assay: Minimum inhibitory concentration (MIC); type: cell-based; design: MIC MSSA: unit not given here
Description: (§3) As used herein, the term “minimum inhibitory concentration (MIC)” refers to the lowest concentration of an antimicrobial agent that will inhibit the visible growth of a microorganism after overnight incubation. MIC values against bacteria, for example, the Gram-positive Staphylococcus aureus and Enterococcus faecalis and the Gram-negative Escherichia coli and Pseudomonas aeruginosa were determined by standard methods. See also P. A. Wayne, Methods for Dilution Antimicrobial Tests for Bacteria that Grow Aerobically; Approved Standard, Ninth Edition, 2012, CLSI Document M07-A9, Vol. 32 No. 2, which is incorporated by reference herein in its entirety.
(§4) Compounds were serially diluted two-fold from a 10% DMSO/aqueous stock solution to yield twelve test concentrations. Overnight S. aureus, E. faecalis, E. coli, P. aeruginosa, CA-MRSA, and HA-MRSA cultures diluted to ca. 10^6 cfu/mL in Mueller-Hinton media and 100 μL were inoculated into each well of a U-bottom 96-well plate (BD Biosciences, BD351177) containing 100 μL of compound solution. Plates were incubated statically at 37° C. for 72 hours upon which time wells were evaluated visually for bacterial growth. The MIC was determined as the lowest concentration of compound resulting in no bacterial growth visible to the naked eye, based on the majority of three independent experiments. Positive and negative DMSO/aqueous solution and media controls were conducted for each trial. See Peng et al., 2011, Chem. Comm. 47:4896-4898.
as §4, with “trial.” for “trial. See Peng et al., 2011, Chem. Comm. 47:4896-4898.”

[4] = test system: community-acquired methicillin-resistant Staphylococcus aureus CA-MRSA (USA300-0114); assay: Minimum inhibitory concentration (MIC); type: cell-based; design: MIC MRSA: unit not given here
Description: as §3, §4
as §4, with “trial.” for “trial. See Peng et al., 2011, Chem. Comm. 47:4896-4898.”

[5] = test system: Escherichia coli (MC4100); assay: Minimum inhibitory concentration (MIC); type: cell-based; settings: for MIC v EC: Table 1
Description: as §3, §4
as §4, with “trial.” for “trial. See Peng et al., 2011, Chem. Comm. 47:4896-4898.”

[6] = test system: Pseudomonas aeruginosa (PAO1); assay: Minimum inhibitory concentration (MIC); type: cell-based; settings: for MIC v PA: Table 1
Description: as §3, §4
as §4, with “trial.” for “trial. See Peng et al., 2011, Chem. Comm. 47:4896-4898.”

[7] = test system: six bacteria (SA, HA-MRSA, CA-MRSA, EF, EC, PA); assay: MIC against the panel of bacteria tested; type: cell-based
Description: as §3
The complete set of MIC values against six bacteria [Staphylococcus aureus (SA), hospital-acquired methicillin-resistant SA (HA-MRSA), community-acquired methicillin-resistant SA (CA-MRSA), Enterococcus faecalis (EF), Escherichia coli (EC), and Pseudomonas aeruginosa (PA)] is presented in Table 3, wherein multiQACs are grouped with their monoQAC counterparts. The dye-based QACs with greatest inhibition of the complete range of Gram-positive and Gram-negative bacteria featured bis- or tris-quaternization, with the optimal alkyl total ranging from 17-24 carbons. For example, comparison of two biscationic series -LMG-n,1 and LMG-n,n—evaluates the effect of total alkyl chain length in retention of efficacy against the more challenging CA-MRSA and the Gram-negative strains EC and PA.
as §4

[8] = test system: Enterococcus faecalis (OG1RF); assay: Minimum inhibitory concentration (MIC); type: cell-based; settings: Table 1
Description: as §3, §4
as §4, with “trial.” for “trial. See Peng et al., 2011, Chem. Comm. 47:4896-4898.”

[9] = test system: Enterococcus faecalis biofilms; assay: Minimum biofilm eradication concentration (MBEC), regrowth assay; type: cell-based; settings: Table 1
Text: as §1

SMILES | MBEC MSSA [2] | MBEC MRSA [1] | MIC v SA ([3]; Table 1) | MIC v EF [8] | MIC v EC [5] | MIC v PA [6] | MBEC v SA [2] | MBEC v EF [9] | further results
CCCCCCCCCCCCCCCC[n+]1ccccc1 [Cetyl pyridinium chloride] | – | – | – | – | – | – | – | – | MBEC v MRSA [1]: 200 µM; Lysis20 (red blood cells; concentration at which 20% of RBCs are lysed): 8 µM; TI MRSA (red blood cells; therapeutic index, Lysis20/MIC v MRSA): 0.5; TI SA (red blood cells; therapeutic index, Lysis20/MIC v SA): 16
CCCCCCCCCCCCCCCCCCCC[N+]1(C)CCN(C)CCN(C)CC1.[Br-] [C-20,0,0] | >200 | >200 | – | – | – | – | – | – | –
CCCCCCCCCCCCCCCC[N+]1(C)CC[N+](C)(C)CC[N+](C)(C)CC1 [C-16,1,1] | 200 | 200 | – | – | – | – | – | – | –
CCCCCCCCCCC[N+](C)(C)CCN(CC[N+](C)(C)CCCCCCCCCCC)CC[N+](C)(C)CCCCCCCCCCC [T-11,11,11] | 200 | >200 | – | – | – | – | – | – | MIC MSSA ([3]; Table 5, S. aureus SH1000): 0.5; MIC MRSA ([4]; Table 5, S. aureus USA300-0114): 1; MIC EC ([5]; Table 5, E. coli MC4100): 1 mm; MIC PA ([6]; Table 5, P. aeruginosa PAO1): 2 mm
CCCCCCCCCCCC[N+](C)(C)CCN1CC[N+](C)(CCCCCCCCCCCC)CC1 [P-12,0,12] | 200 | 200 | – | – | – | – | – | – | –
CCCCCCCCCCCCCCCCCC[n+]1cccc([C@@H]2CCC[N+]2(C)C)c1.[Br-].[I-] [N-18,1] | – | – | – | – | – | – | – | – | low micromolar activity ([7]; all bacteria except for P. aeruginosa): 4 µM
CCCCCCCCCCC[n+]1ccc(-c2cc[n+](CCCCCCCCCCC)cc2)cc1 [PQ-11,11] | – | – | 1 µM | 1 µM | 1 µM | 4 µM | 50 µM | 50 µM | –
CCCCCCCCCCCC[N+](C)(C)CCCN(C)CCC[N+](C)(C)CCCCCCCCCCCC [12(3)0(3)12] | – | – | 1 µM | 2 µM | 1 µM | 4 µM | 37.5 µM | 50 µM | –
CCCCCCCCCCCC[N+](C)(C)CCN(C)CCN(C)CC[N+](C)(C)CCCCCCCCCCCC [N4-12,0,0,12] | – | – | 1 µM | 1 µM | 1 µM | 2 µM | 50 µM | 75 µM | –
CCCCCCCCCC[N+](C)(C)CCCN(CC[N+](C)(C)CCCCCCCCCC)CC[N+](C)(C)CCCCCCCCCC [T-10,10,10] | 100 | 200 | – | – | – | – | – | – | –
CCCCCCCCCCCC[N+](C)(C)CCC[N+](C)(C)CCC[N+](C)(C)CCCCCCCCCCCC [12(3)1(3)12] | – | – | 1 µM | 2 µM | 2 µM | 8 µM | 50 µM | 50 µM | –
C=CC[N+](C)(CC[N+](C)(C)CCCCCCCCCCCC)CC[N+](C)(CC=C)CC[N+](C)(C)CCCCCCCCCCCC (centres unmarked) [N4-12,allyl,allyl,12] | – | – | – | – | – | – | – | – | MIC v SA ([3]; Table 2, non-resistant S. aureus strain (SH1000)): 1 µM; MIC v MRSA ([4]; Table 2, qac-bearing MRSA strain USA300-0114): 1 µM; MBEC v MRSA [1]: 150 µM; Lysis20 (red blood cells): 8 µM; TI MRSA (red blood cells): 8; TI SA (red blood cells): 8; MIC ([7]; FIG. 4 legend, range of MIC values): 1 to 2 µM
